For assay [1], the target named is T1, BACE1 (Homo sapiens, UniProt P56817). The assay can be described thus: In Vitro BACE Cell-based Assay (HEK cell assay): Aβ40 in conditioned medium of cells stably expressing Amyloid Precursor Protein, sandwich ELISA. To be noted: read-out: HEK cell assay. The protocol: In Vitro BACE Cell-based Assay
The cell-based assay measures inhibition or reduction of Aβ40 in conditioned medium of test compound treated cells expressing amyloid precursor protein.
Cells stably expressing Amyloid Precursor Protein (APP) were plated at a density of 40K cells/well in 96 well plates (Costar). The cells were cultivated for 24 hours at 37° C. and 5% CO2 in DMEM supplemented with 10% FBS. The test compounds were then added to cells in 10-point dose response concentrations with the starting concentration being either 100 μM or 10 μM. The compounds were diluted from stock solutions in DMSO and the final DMSO concentration of the test compounds on cells was 0.1%. After 24 h of incubation with the test compounds the supernatant conditioned media was collected and the Aβ 40 levels were determined using a sandwich ELISA. The IC50 of the compound was calculated from the percent of control or percent inhibition of Aβ 40 as a function of the concentration of the test compound.
The sandwich ELISA to detect Aβ 40 was performed in 96 well microtiter plates, which were pre-treated with goat anti-rabbit IgG (Pierce). The capture and detecting antibody pair that were used to detect Aβ 40 from cell supernatants were affinity purified pAb40 (Biosource) and biotinylated 6E10 (Signet Labs Inc.), respectively. The optimal concentration for the pAb40 antibody was 3 μg/ml in Superblock/TBS (Pierce) that was supplemented with 0.05% Tween 20 (Sigma).
Cellular supernatants were incubated with the capture antibody for 3 h at 4° C., followed by 3 wash steps in TBS-tween (0.05%). The detecting antibody incubation was for 2 h at 4° C., again followed by the wash steps as described previously. The final readout of the ELISA is Time-Resolved Fluorescence (counts per minute) using Delfia reagents Streptavidin-Europium and Enhancement solutions (Perkin Elmer) and the Victor 2 multilabel counter (Perkin Elmer).

Assay [2] deals with T1, BACE1. Kind of assay: In Vitro Enzymatic BACE FRET (Fluorescence Resonance Energy Transfer) Assay. The class given is biochemical. The conditions noted are these: read-out: BACE1 FRET assay. The method, then: In Vitro Enzymatic BACE FRET (Fluorescence Resonance Energy Transfer) Assay (Enzyme Assay Data in the Example Tables I, II, III & IV) The assay buffer used in this screen is 0.05 M acetate, pH 4.2, 10% DMSO final, 100 uM genapol (which is a nonionic detergent, below its Critical Micelle Concentration). […] This assay is effectively started by the addition of FRET substrate (50 nM) and the combination is incubated for one hour. The FRET assay is terminated with by addition of Tris buffer, which raises the pH to neutrality, and the fluorescence is determined. The FRET substrate is a peptide with commercially available fluorophore and quencher, on opposite sides of the BACE cleavage site. […]

Setting [3] is: HEK cell-based assay, Aβ40 in conditioned medium, IC50 class symbols.
Where [4] appears, read: in vitro BACE FRET enzyme assay, IC50 class symbols.

Here are results for 38 compounds from patent US8426447B2, “Spiro-tricyclic ring compounds as beta-secretase modulators and methods of use” (Amgen Inc., priority 2008, dated 2013).

T1 sequence (P56817 46-501, species assumed): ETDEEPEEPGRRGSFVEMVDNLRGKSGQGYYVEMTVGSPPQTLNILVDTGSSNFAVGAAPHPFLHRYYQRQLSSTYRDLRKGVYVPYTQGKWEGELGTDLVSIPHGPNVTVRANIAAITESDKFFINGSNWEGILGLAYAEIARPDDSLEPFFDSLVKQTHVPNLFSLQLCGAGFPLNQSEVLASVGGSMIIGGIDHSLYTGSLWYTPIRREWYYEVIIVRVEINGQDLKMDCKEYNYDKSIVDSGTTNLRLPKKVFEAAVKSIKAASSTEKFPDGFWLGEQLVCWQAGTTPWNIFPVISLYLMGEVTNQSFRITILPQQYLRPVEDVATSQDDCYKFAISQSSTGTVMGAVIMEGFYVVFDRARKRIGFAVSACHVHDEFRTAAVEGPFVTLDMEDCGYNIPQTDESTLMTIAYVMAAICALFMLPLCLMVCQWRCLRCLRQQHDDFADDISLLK

As for `Cc1ccc2c(c1)Oc1ccc(-c3cccc(OC(F)(F)F)c3)cc1[C@]21COC(N)=N1` [Example 24, (4S)-6′-methyl-2′-(3-(trifluoromethoxy)phenyl)spiro[1,3-oxazole-4,9′-xanthen]-2-amine], the IC50 in assay [1] (Table 1, Aβ40, 24 h incubation) was 1 to 5 µM; in assay [2] (Table 1) it was greater than 5 µM.
Consider `CC(=O)c1ccccc1-c1ccc2c(c1)[C@]1(COC(N)=N1)c1cc(OCC(C)(C)C)ccc1O2` [compound 190], for which the IC50 in assay [1] (Table III, IC50's in uM ranges) is greater than 5 µM; in assay [2] (Table III, IC50's in uM ranges), 0.1 to 1 µM.
`CC(C)(C)COc1ccc2c(c1)[C@]1(COC(N)=N1)c1cc(-c3cccnc3F)cnc1O2` [compound 871]: the IC50 in assay [1] (Table IV, class symbols) was 0.1 to 1 µM; in assay [2] (Table IV, class symbols) it was less than 0.1 µM.
For the compound `CC(C)(C)COc1ccc2c(c1)[C@]1(COC(N)=N1)c1cc(-c3csc(-n4ccnc4)n3)ccc1O2` [compound 214], the IC50 in assay [1] (Table III, IC50's in uM ranges) is 1 to 5 µM; in assay [2] (Table III, IC50's in uM ranges), 0.1 to 1 µM.
As to `COc1ccc2c(c1)[C@]1(COC(N)=N1)c1cc(-c3cncnc3)cc(F)c1O2` [152a], the IC50 in assay [1] (Table III, IC50's in uM ranges) lay in the range of 1 to 5 µM; in assay [2] (Table III, IC50's in uM ranges) it was 0.1 to 1 µM.
In the case of `COc1ccc2c(c1)[C@]1(COC(N)=N1)c1cc(-c3ccnc4ccccc34)ccc1O2` [compound 589], the IC50 in assay [1] (Table IV, class symbols) fell in the range of 1 to 5 µM; in assay [2] (Table IV, class symbols), 1 to 5 µM.
As for `NC1=N[C@]2(CO1)c1cc(OC[C@@H](O)C(F)(F)F)ccc1Oc1ccc(-c3cccnc3)cc12` [compound 925], the IC50 in assay [1] was 0.1 to 1 µM; in assay [2], less than 0.1 µM.
Take `NC1=NC2(CO1)c1cc(-c3cccnc3)ccc1Oc1ccc(-c3cccnc3)cc12` [Example 123, 2′,7′-di(pyridin-3-yl)-5H-spiro[oxazole-4,9′-xanthen]-2-amine]: the IC50 was less than 0.1 µM in assay [1] (Table III, IC50's in uM ranges) and less than 0.1 µM in assay [2] (Table III, IC50's in uM ranges).
With `CC(C)(C)COc1ccc2c(n1)[C@@]1(COC(N)=N1)c1cc(Br)ccc1O2` [compound 736], the IC50 in assay [1] is greater than 5 µM; in assay [2] it was 1 to 5 µM.
With `CCCNC(=O)c1ccc2c(c1)[C@@]1(COC(N)=N1)c1cc(OCC(C)(C)C)ccc1O2` [compound 657], the IC50 was 0.1 to 1 µM in assay [1] (Table IV, class symbols) and less than 0.1 µM in assay [2] (Table IV, class symbols).
Turning to `NC1=N[C@@]2(CO1)c1cc(-c3cccnc3)ccc1Oc1ncc(-c3cccnc3)cc12` [compound 203], the IC50 fell in the range of 1 to 5 µM in assay [1] (Table III, IC50's in uM ranges) and 0.1 to 1 µM in assay [2] (Table III, IC50's in uM ranges).
For the compound `N#Cc1ccc(-c2cnc3c(c2)[C@]2(COC(N)=N2)c2cc(-c4cncnc4)ccc2O3)cc1` [compound 473], the IC50 in assay [1] (HEK cells) and in assay [2] was less than 0.1 µM in each case.
With `CCC(C)(O)COc1ccc2c(c1)[C@]1(COC(N)=N1)c1cc(-c3cccnc3)ccc1O2` (stereo partly shown) [compound 770], the IC50 in assay [1] and in assay [2] was less than 0.1 µM each time.
Take `NC1=N[C@@]2(CO1)c1cc(-c3cc(C4=CCOCC4)ccc3F)ccc1Oc1cnc(C3=CCOCC3)cc12` [compound 423]: the IC50 in assay [1] (HEK cells) is 0.1 to 1 µM; in assay [2], less than 0.1 µM.
With `NC1=N[C@@]2(CO1)c1cc(-c3cccc(F)c3)ccc1Oc1cnc(-c3cccc(F)c3)cc12` [compound 366], the IC50 was 0.1 to 1 µM in assay [1] (setting [3]) and less than 0.1 µM in assay [2] (setting [4]).
`COc1ccc2c(c1)[C@@]1(COC(N)=N1)c1cc(C(=O)N3CCCC3)ccc1O2` [Example 127, (R)-(2-amino-2′-methoxy-5H-spiro[oxazole-4,9′-xanthene]-7′-yl)(pyrrolidin-1-yl)methanone]: the IC50 in assay [1] (Table III, IC50's in uM ranges) was 1 to 5 µM; in assay [2] (Table III, IC50's in uM ranges), greater than 5 µM.
Consider `NC1=N[C@@]2(CO1)c1cc(Br)ccc1Oc1ccc(-c3cccnc3)cc12` [compound 876], for which the IC50 in assay [1] (Table IV, class symbols) lay in the range of 1 to 5 µM; in assay [2] (Table IV, class symbols) it was 0.1 to 1 µM.
Regarding `N#Cc1cccc(-c2cc3c(cn2)Oc2ccc(-c4cccnc4F)cc2[C@@]32COC(N)=N2)c1` [compound 373], the IC50 in assay [1] (setting [3]) and in assay [2] (setting [4]) was less than 0.1 µM throughout.
As to `NC1=N[C@]2(CO1)c1cc(C#CC3CCCCC3)ccc1Oc1ccc(-c3cncnc3)cc12` [compound 138], the IC50 in assay [1] (Table III, IC50's in uM ranges) was 0.1 to 1 µM; in assay [2] (Table III, IC50's in uM ranges), less than 0.1 µM.
Consider `COCC(=O)Nc1ccc2c(c1)[C@@]1(COC(N)=N1)c1cc(OC)ccc1O2` [compound 613], for which the IC50 in assay [1] (Table IV, class symbols) was in the range of 0.1 to 1 µM; in assay [2] (Table IV, class symbols) it was 0.1 to 1 µM.
On to `COC(C)(C)C#Cc1ccc2c(c1)[C@@]1(COC(N)=N1)c1cc(-c3cccnc3)cnc1O2` [compound 179], for which the IC50 in assay [1] (Table III, IC50's in uM ranges) is 0.1 to 1 µM; in assay [2] (Table III, IC50's in uM ranges), less than 0.1 µM.
For the compound `NC1=N[C@@]2(CO1)c1cc(-c3cccnc3N3CCOCC3)ccc1Oc1cnc(Cl)cc12` [compound 337], the IC50 was greater than 5 µM in assay [1] (setting [3]) and 1 to 5 µM in assay [2] (setting [4]).
Take `COC(=O)/C=C/c1ccc2c(c1)[C@@]1(COC(N)=N1)c1cc(Br)ccc1O2` [compound 950]: the IC50 was greater than 5 µM in assay [1] and 1 to 5 µM in assay [2].
Take `CC(C)(C)COc1ccc2c(c1)[C@]1(COC(N)=N1)c1cc(-c3cnc(Cl)nc3)ccc1O2` [compound 881]: the IC50 in assay [1] (Table IV, class symbols) is 0.1 to 1 µM; in assay [2] (Table IV, class symbols) it was less than 0.1 µM.
For `CC(C)(C)COc1ccc2c(c1)[C@]1(COC(N)=N1)c1cc(-c3ccc(N4CCOCC4)nc3)ccc1O2` [compound 912], in that order: greater than 5 µM and 1 to 5 µM.
Regarding `CC(C)(C)COc1ccc2c(c1)[C@]1(COC(N)=N1)c1cc(C(C)(C)O)ccc1O2` [compound 827], the IC50 in assay [1] (Table IV, class symbols) is 1 to 5 µM; in assay [2] (Table IV, class symbols), 0.1 to 1 µM.
For `NC1=N[C@@]2(CO1)c1cc(-c3cccnc3F)ccc1Oc1c(F)cc(N3C[C@@H]4C[C@H]3CO4)cc12` [compound 416], the IC50 in assay [1] (setting [3]) and in assay [2] (setting [4]) was less than 0.1 µM each time.
With `CC(C)(C)COc1ccc2c(c1)[C@@]1(COC(N)=N1)c1cc(-c3ccc(F)nc3)cnc1O2` [compound 868], the IC50 in assay [1] (Table IV, class symbols) is less than 0.1 µM; in assay [2] (Table IV, class symbols), less than 0.1 µM.
Consider `NC1=N[C@]2(CO1)c1cc(CC(=O)O)ccc1Oc1ccc(-c3cncnc3)cc12` [compound 751], for which the IC50 was greater than 5 µM in assay [1] and 0.1 to 1 µM in assay [2].
With `CC(C)(O)C#Cc1ccc2c(c1)C1(COC(N)=N1)c1cc(C#CC(C)(C)O)cnc1O2` (stereo not shown) [Example 114, 4,4′-(−2′-aminospiro[chromeno[2,3-b]pyridine-5,4′-[1,3]oxazole]-3,7-diyl)bis(2-methyl-3-butyn-2-ol)], the IC50 in assay [1] (Table III, IC50's in uM ranges) was 0.1 to 1 µM; in assay [2] (Table III, IC50's in uM ranges) it was 0.1 to 1 µM.
Turning to `COc1cccc(-c2ccc3c(c2)[C@]2(COC(N)=N2)c2cc(-c4cncnc4)ccc2O3)c1` [compound 893], the IC50 was 0.1 to 1 µM in assay [1] (Table IV, class symbols) and less than 0.1 µM in assay [2] (Table IV, class symbols).
Turning to `COc1ccc2c(c1)[C@]1(COC(N)=N1)c1cc(-c3cnc4ccccc4c3)ccc1O2` [compound 633], the IC50 in assay [1] (Table IV, class symbols) was 1 to 5 µM; in assay [2] (Table IV, class symbols) it was 1 to 5 µM.
Regarding `CC(C)(C)COc1ccc2c(c1)[C@@]1(COC(N)=N1)c1cc(-c3ccc(OCC(F)(F)F)nc3)cnc1O2` [compound 740], the IC50 in assay [1] and in assay [2] was less than 0.1 µM throughout.
With `CN(C)C(=O)/C=C/c1ccc2c(c1)[C@]1(COC(N)=N1)c1cc(-c3cncnc3)ccc1O2` [compound 917], the IC50 in assay [1] (Table IV, class symbols) is 0.1 to 1 µM; in assay [2] (Table IV, class symbols) it was less than 0.1 µM.
As to `COC1CCN(c2ccc3c(c2)[C@]2(COC(N)=N2)c2cc(-c4cccnc4)ccc2O3)CC1` [compound 464], the IC50 in assay [1] (HEK cells) and in assay [2] was less than 0.1 µM each time.
As to `CC(C)(C)C#Cc1cc2c(cn1)Oc1ccc(-c3cncnc3)cc1[C@@]21COC(N)=N1` [compound 512, (5S)-3-(3,3-dimethyl-1-butyn-1-yl)-7-(5-pyrimidinyl)spiro[chromeno[2,3-c]pyridine-5,4′-[1,3]oxazol]-2′-amine], the IC50 in assay [1] (HEK cells) and in assay [2] was less than 0.1 µM in each case.
Regarding `NC1=N[C@@]2(CO1)c1cc(-c3cccnc3F)ccc1Oc1c(F)cc(C3CCOCC3)cc12` [compound 385, (4S)-4′-fluoro-7′-(2-fluoro-3-pyridinyl)-2′-(tetrahydro-2H-pyran-4-yl)spiro[1,3-oxazole-4,9′-xanthen]-2-amine], the IC50 in assay [1] (setting [3]) and in assay [2] (setting [4]) was less than 0.1 µM throughout.
In the case of `NC1=N[C@@]2(CO1)c1cc(Br)ccc1Oc1ncccc12` [compound 601], the IC50 in assay [1] (Table IV, class symbols) was greater than 5 µM; in assay [2] (Table IV, class symbols), greater than 5 µM.
